From PubChem BioAssay (NCI) come the findings set out here.

Test systems include SK-OV-3 ovarian; MDA-MB-435; HOP-62 NSCLC; SK-MEL-5 melanoma; SF-295 CNS; MOLT-4 leukemia; NCI-H226 lung; SK-MEL-28 melanoma; CAKI-1 renal; RXF 393 renal.
Common to all, as to assay: DTP human tumour cell line panel, 48 h

Where “and” joins values, the source holds several entries; their conditions need not be identical. Equal entries are not always repeated.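 Cultured in 96-well plates, cells were exposed to test compound for 48 hours across five concentrations. At the GI50, growth is halved. TGI denotes the concentration required for complete inhibition of growth.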 Where only a bound is given, the exact number is not on record here.

Turning to `Cc1ccc(S(=O)(=O)Nn2c(-c3ccccc3)c(C#N)c(-c3ccc([N+](=O)[O-])cc3)c(C#N)c2=O)cc1`, the TGI in the test with SK-OV-3 ovarian, in the test with MDA-MB-435, in the test with HOP-62 NSCLC, in the test with SK-MEL-5 melanoma, with SF-295 CNS and in the test with MOLT-4 leukemia was more than 100 µM each time. Also, the TGI with NCI-H226 lung, with SK-MEL-28 melanoma, in the test with CAKI-1 renal and in the test with RXF 393 renal was more than 100 µM in each case.
For the molecule `CN(C)c1ccc(/C=C(\NC(=O)c2ccccc2)C(=O)Nc2ccccc2C(=O)NN2C(=O)CSC2c2ccc(N(C)C)cc2)cc1` (stereo not drawn), the concentration for total growth inhibition (TGI) in the test on SK-OV-3 ovarian, in the test on MDA-MB-435, in the test on HOP-62 NSCLC, in the test on SK-MEL-5 melanoma, with SF-295 CNS and in the test with MOLT-4 leukemia was more than 100 µM in each case. Moreover, the TGI in the test with NCI-H226 lung, with SK-MEL-28 melanoma, in the test on CAKI-1 renal and in the test with RXF 393 renal was more than 100 µM throughout.
Turning to `O=C1C/C(=C\O)C(=O)c2ccccc2N1`, the total growth inhibition concentration (TGI) in the test with SK-OV-3 ovarian, with MDA-MB-435, with HOP-62 NSCLC, with SK-MEL-5 melanoma, in the test on SF-295 CNS and in the test on MOLT-4 leukemia was more than 100 µM each time. For the same molecule, the concentration for total growth inhibition (TGI) in the test with NCI-H226 lung, with SK-MEL-28 melanoma, with CAKI-1 renal and with RXF 393 renal was more than 100 µM in each case.
For the molecule `N#Cc1c(=O)c2cccnc2n2c1[nH]c1ccccc12`, the TGI in the test on SK-OV-3 ovarian, in the test on MDA-MB-435, with HOP-62 NSCLC, with SF-295 CNS, in the test on MOLT-4 leukemia and with NCI-H226 lung was more than 100 µM in each case. For the same molecule, the concentration for total growth inhibition (TGI) in the test with SK-MEL-28 melanoma, in the test with CAKI-1 renal and with RXF 393 renal was more than 100 µM in each case.
Consider `O=C1c2cc(Cl)ccc2-n2c(noc2=O)C2CSCN12` (stereo not drawn), for which the TGI in the test on SK-OV-3 ovarian, in the test with MDA-MB-435, in the test with HOP-62 NSCLC, with SK-MEL-5 melanoma, in the test on SF-295 CNS and with MOLT-4 leukemia was more than 100 µM each time. Further, the concentration for total growth inhibition (TGI) in the test on NCI-H226 lung, with SK-MEL-28 melanoma, with CAKI-1 renal and in the test with RXF 393 renal was more than 100 µM throughout.
For the molecule `O=C(c1ccccc1F)c1c(NCc2ccccc2)c(=O)c1=O`, the TGI in the test on SK-OV-3 ovarian, with MDA-MB-435, in the test on HOP-62 NSCLC, in the test with SK-MEL-5 melanoma, with SF-295 CNS and with MOLT-4 leukemia was more than 100 µM in each case. The TGI in the test with NCI-H226 lung, in the test with SK-MEL-28 melanoma, in the test on CAKI-1 renal and with RXF 393 renal was more than 100 µM throughout.
For the molecule `Oc1ccc2ccccc2c1-c1nnc(CCCCCCCCc2nnc(-c3c(O)ccc4ccccc34)o2)o1`, the TGI with SK-OV-3 ovarian is more than 100 µM; with MDA-MB-435, 25 µM and > 100 µM; with HOP-62 NSCLC, > 25 µM and 12.4 µM; in the test with SK-MEL-5 melanoma it was 8.59 µM and 44.2 µM; with SF-295 CNS, 25 µM and > 93.6 µM; in the test with NCI-H226 lung, 29.6 µM. The TGI was more than 68.5 µM in the test with SK-MEL-28 melanoma; 3.11 µM with CAKI-1 renal; 7.93 µM and 31.8 µM in the test with RXF 393 renal. Further, the GI50 was 3.5 µM in the test with MDA-MB-435; more than 25 µM in the test with HOP-62 NSCLC; 3.15 µM in the test on SK-MEL-5 melanoma; 2.83 µM in the test with SF-295 CNS; 0.0812 µM with MOLT-4 leukemia; more than 25 µM in the test on SK-MEL-28 melanoma. For the same molecule, the results for the GI50 in the test on CAKI-1 renal and with RXF 393 renal were 0.698 µM and 1.39 µM, respectively.
Take `O=C1c2ccccc2NC2C(O)c3ccccc3N12` (stereo not drawn): the total growth inhibition concentration (TGI) in the test on SK-OV-3 ovarian is more than 100 µM; in the test on MDA-MB-435 it was 31.9 µM; with HOP-62 NSCLC, more than 100 µM; with SK-MEL-5 melanoma it was more than 100 µM; in the test with SF-295 CNS, more than 100 µM; with MOLT-4 leukemia, 58.7 µM. In addition, the TGI in the test on NCI-H226 lung, with CAKI-1 renal and in the test with RXF 393 renal was more than 100 µM in each case.
On to `C/C(=N\N=C(N)N)c1c(C(=O)OCCCCCCOC(=O)c2nc3sccn3c2/C(C)=N/N=C(N)N)nc2sccn12`, for which the TGI in the test with MDA-MB-435, in the test with SK-MEL-5 melanoma, in the test with MOLT-4 leukemia, in the test on NCI-H226 lung, with SK-MEL-28 melanoma and in the test with CAKI-1 renal was more than 100 µM each time. The total growth inhibition concentration (TGI) in the test on RXF 393 renal is more than 100 µM.
As for `C#CC(C)(C)Oc1cc(OC)c2c(=O)c3ccccc3n(C)c2c1`, the TGI in the test with SK-OV-3 ovarian was 54.9 µM; in the test with MDA-MB-435, 26.9 µM; with HOP-62 NSCLC, more than 100 µM; in the test with SK-MEL-5 melanoma it was 23.4 µM; with SF-295 CNS, 51.8 µM; in the test on MOLT-4 leukemia, 22.3 µM. Moreover, the results for the total growth inhibition concentration (TGI) in the test with NCI-H226 lung, in the test with SK-MEL-28 melanoma and in the test on RXF 393 renal were 36.4 µM, 42.6 µM and 84.8 µM, respectively.
For the molecule `O=C(Cc1nc2ccc(C(=O)c3ccccc3)cc2[nH]c1=O)C(=O)Nc1ccccc1[N+](=O)[O-]`, the TGI in the test with SK-OV-3 ovarian, with MDA-MB-435, in the test on SK-MEL-5 melanoma, with SF-295 CNS, with NCI-H226 lung and in the test on SK-MEL-28 melanoma was more than 100 µM in each case. Moreover, the TGI in the test with CAKI-1 renal and with RXF 393 renal was more than 100 µM throughout.
On to `CC(=O)N(C(C)=O)n1c(Cc2ccc(Cl)cc2)nn(C(C)=O)c1=O`, for which the TGI in the test with SK-OV-3 ovarian, in the test on MDA-MB-435, with HOP-62 NSCLC, with SK-MEL-5 melanoma, in the test on SF-295 CNS and with MOLT-4 leukemia was more than 100 µM throughout. For the same molecule, the total growth inhibition concentration (TGI) with NCI-H226 lung, in the test on SK-MEL-28 melanoma and in the test with RXF 393 renal was more than 100 µM throughout.
With `CSc1c(C(C)=O)c(O)n(-c2ccc(Cl)cc2)c(=O)c1C#N`, the TGI was more than 100 µM in the test with SK-OV-3 ovarian; more than 100 µM in the test on MDA-MB-435; more than 100 µM in the test on SK-MEL-5 melanoma; 55.3 µM in the test on MOLT-4 leukemia; more than 100 µM in the test with NCI-H226 lung; more than 100 µM in the test on SK-MEL-28 melanoma. For the same molecule, the total growth inhibition concentration (TGI) with CAKI-1 renal is 53.2 µM; in the test on RXF 393 renal it was more than 100 µM.
Turning to `CCCCCCCCCCCCC(=O)NCC(=O)NC(Cc1ccccc1)C(=O)Oc1ccc([N+](=O)[O-])cc1` (stereo not drawn), the total growth inhibition concentration (TGI) in the test on MDA-MB-435, in the test on HOP-62 NSCLC, in the test on SK-MEL-5 melanoma, with SF-295 CNS, with NCI-H226 lung and with CAKI-1 renal was more than 100 µM in each case. The concentration for total growth inhibition (TGI) with RXF 393 renal is more than 100 µM.

For orientation: TGI means the concentration at which net growth stops. As a reminder, the GI50 is the concentration giving 50% growth inhibition.
